# Measurements published in US20100234226A1, “HERBICIDE COMBINATION COMPRISING DIMETHOXYTRIAZINYL-SUBSTITUTED DIFLUOROMETHANESULFONYLANILIDES” (BAYER CROPSCIENCE AG, priority 2008, published 2010).
# Read-outs that look alike come from different tables or passages of the source.
# Key:
# Format in all cases: in vivo
# Zea mays (ZEAMX) = experiment: Post-emergence action against weeds, greenhouse pot test, Zea mays; details: Zea mays, post-emergence, read-out: % activity found; for inhibition at 12 g/ha: 12 g of ai/ha; for inhibition at 36 g/ha: 36 g of ai/ha
# Experimental: (§1) Seeds or rhizome pieces of mono- and dicotyledonous harmful and useful plants were placed in peat pots (diameter 4 cm) filled with sandy loam and then covered with soil. The pots were kept in a greenhouse under optimum conditions. In addition, harmful plants encountered in paddy rice cultivation were cultivated in pots with a water level 2 cm above the soil surface.
# (§2) About three weeks after the start of the cultivation, the test plants were treated at the 2- to 3-leaf stage. The herbicides, formulated as powder or liquid concentrates, were, either alone or in the combinations according to the invention, sprayed in various dosages on to the green parts of the plants using an application rate of 600 l of water/ha (converted). For further cultivation of the plants, the pots were then again kept under optimum conditions in a greenhouse.
# (§3) The visual scoring of the herbicidal effects was carried out in intervals up to 21 days after the treatment. Scoring was carried out in percent in comparison to the untreated control plants. 0%=no herbicidal activity, 100%=complete herbicidal activity=complete kill.
# (§4) The percentages from the treatments with the herbicides alone (=individual application) and with the combinations according to the invention (=mixtures) were employed to calculate interactions using the method of Colby. When the observed efficacies of the mixtures exceed the formal sum of the values of the tests with individual applications, they also exceed the expected value according to Colby, which is calculated using the formula below (cf. S. R. Colby; in Weeds 15 (1967) pp. 20 to 22):
# (§5) Here: • A, B=activity of components A and B in percent at a dosage of a and b g of ai/ha (=gramm of active substance per hectare), respectively. • E=expected value in % at a dosage of a+b g of ai/ha.
# (§6) The combinations according to the invention of herbicides from group (A) with herbicides from group (B) were tested on a broad spectrum of important harmful plants (weed grasses, broad-leaved weeds/Cyperaceae) and useful plants: Triticum aestivum (TRZAS), Stellaria media (STEME), Lolium multiflorum (LOLMU), Veronica persica (VERPE), Alopecurus myosuroides (ALOMY), Matricaria inodora (MATIN), Brassica napus (BRSNW), Viola tricolor (VIOTR), Avena fatua (AVEFA), Amaranthus retroflexus (AMARE), Zea mays (ZEAMX), Pharbitis purpurea (PHBPU), Setaria viridis (SETVI), Fallopia (ex Polygonum) convolvulus (POLCO), Echinochloa crus-gaffi (ECHCG), Abuthilon theophrasti (ABUTH), Cyperus esculentus (CYPES), Oryza sativa (ORYSA).
# (§7) Of particular interest are the results shown in the tables (Tab.) below, where the following key is used: • (1) EPPO code (former Bayer code) for the treated plant (see above) • (2) Time of scoring: DAT (days after treatment) • (3) Component A tested (identifying number) • (4) Component B tested (identifying number) • (5) Dosage component A [g of ai/ha] • (6) Dosage component B [g of ai/ha] • (7) % activity found • (8) E value (calculated according to Colby; see above) • (9) Comments: “SYNERGY”=synergistic interaction (E value <% activity found); “SAFENING”=safener action on useful plant (E value >% activity found)
# [1] = tested on: Lolium multiflorum (LOLMU); experiment: Post-emergence action against weeds, greenhouse pot test, Lolium multiflorum; details: 12 g of ai/ha, read-out: % activity found
# Experimental: as §1, §2, §3, §4, §5, §6, §7
# Veronica persica (VERPE) = experiment: Post-emergence action against weeds, greenhouse pot test, Veronica persica; details: read-out: % activity found; for inhibition at 12 g/ha: 12 g of ai/ha; for inhibition at 36 g/ha: 36 g of ai/ha
# Experimental: as §1, §2, §3, §4, §5, §6, §7
# [2] = tested on: Matricaria inodora (MATIN); experiment: Post-emergence action against weeds, greenhouse pot test, Matricaria inodora; details: Tripleurospermum inodorum, post-emergence, read-out: % activity found; for inhibition at 36 g/ha: 36 g of ai/ha
# Experimental: as §1, §2, §3, §4, §5
# Setaria viridis (SETVI) = experiment: Post-emergence action against weeds, greenhouse pot test, Setaria viridis; details: 504 h, 21 DAT, read-out: % activity found
# Experimental: as §1, §2, §3, §4
# (§8) Here: • A, B=activity of components A and B in percent at a dosage of a and b g of ai/ha (=gramm of active substance per hectare), respectively. • E=expected value in % at a dosage of a+b g of ai/ha. […]
# [3] = tested on: Fallopia (ex Polygonum) convolvulus (POLCO); experiment: Post-emergence action against weeds, greenhouse pot test, Fallopia convolvulus; details: Fallopia convolvulus, post-emergence, 504 h, 21 DAT, read-out: % activity found
# Experimental: as §1, §2, §3, §4, §5, §6, §7
# Viola tricolor (VIOTR) = experiment: Post-emergence action against weeds, greenhouse pot test, Viola tricolor; details: Viola tricolor, post-emergence, read-out: % activity found; for inhibition at 12 g/ha: 12 g of ai/ha
# Experimental: as §1, §2, §3, §4, §5, §6, §7
# [4] = tested on: Amaranthus retroflexus (AMARE); experiment: Post-emergence action against weeds, greenhouse pot test, Amaranthus retroflexus; details: read-out: % activity found; for inhibition at 12 g/ha: 12 g of ai/ha; for inhibition at 36 g/ha: 36 g of ai/ha
# Experimental: as §1, §2, §3, §4, §5, §6, §7
# [5] = tested on: Pharbitis purpurea (PHBPU); experiment: Post-emergence action against weeds, greenhouse pot test, Pharbitis purpurea; details: Ipomoea purpurea, read-out: % activity found; for inhibition at 12 g/ha: 12 g of ai/ha
# Experimental: as §1, §2, §3, §4, §5, §6, §7
# [6] = tested on: Cyperus esculentus (CYPES); experiment: Post-emergence action against weeds, greenhouse pot test, Cyperus esculentus; details: Cyperus esculentus, post-emergence, read-out: % activity found; for inhibition at 12 g/ha: 12 g of ai/ha
# Experimental: as §1, §2, §3, §4, §5
# Oryza sativa (ORYSA) = experiment: Post-emergence action against weeds, greenhouse pot test, Oryza sativa; details: 240 h, 10 DAT, read-out: % activity found
# Experimental: as §1
# as §2, with “greenhouse. […]” for “greenhouse.”
# as §4, with “22): […]” for “22):”
# [7] = tested on: Triticum aestivum (TRZAS); experiment: Post-emergence action against weeds, greenhouse pot test, Triticum aestivum; details: 504 h, 21 DAT, read-out: % activity found
# Experimental: as §1, §2, §3, §4, §8
# Avena fatua (AVEFA) = experiment: Post-emergence action against weeds, greenhouse pot test, Avena fatua; details: read-out: % activity found; for inhibition at 100 g/ha: 100 g of ai/ha
# Experimental: as §1, §2, §3, §4, §8, §7
# [8] = tested on: Alopecurus myosuroides (ALOMY); experiment: Post-emergence action against weeds, greenhouse pot test, Alopecurus myosuroides; details: 504 h, 21 DAT, 100 g of ai/ha, read-out: % activity found
# Experimental: as §1
# as §2, with “greenhouse. […]” for “greenhouse.”
# as §4, with “22): […]” for “22):”
structure (smiles),measurement,setting,value
"Cc1ccccc1CO[C@@H]1C[C@@]2(C(C)C)CC[C@]1(C)O2 (racemic) [B-24, exo-(±)-1-methyl-4-(1-methylethyl)-2-[(2-methylphenyl)methoxy]-7-oxabicyclo[2.2.1]heptane]",inhibition at 12 g/ha,"Zea mays (ZEAMX); 240 h, 10 DAT",0%
same,inhibition at 36 g/ha,"Zea mays (ZEAMX); 240 h, 10 DAT",20%
same,inhibition at 12 g/ha,"Zea mays (ZEAMX); 504 h, 21 DAT",0%
same,inhibition at 36 g/ha,"Zea mays (ZEAMX); 504 h, 21 DAT",0%
same,inhibition at 12 g/ha,"[1]; 240 h, 10 DAT",40%
same,inhibition at 12 g/ha,"[1]; 504 h, 21 DAT",20%
same,inhibition at 12 g/ha,"Veronica persica (VERPE); 240 h, 10 DAT",0%
same,inhibition at 36 g/ha,"Veronica persica (VERPE); 240 h, 10 DAT",0%
same,inhibition at 12 g/ha,"Veronica persica (VERPE); 504 h, 21 DAT",0%
same,inhibition at 36 g/ha,"Veronica persica (VERPE); 504 h, 21 DAT",0%
same,inhibition at 36 g/ha,"[2]; 240 h, 10 DAT",0%
same,inhibition at 12 g/ha,"[2]; 504 h, 21 DAT, 12 g of ai/ha",0%
same,inhibition at 36 g/ha,"[2]; 504 h, 21 DAT",0%
same,inhibition at 12 g/ha,Setaria viridis (SETVI); 12 g of ai/ha,30%
same,inhibition at 36 g/ha,Setaria viridis (SETVI); 36 g of ai/ha,50%
same,inhibition at 12 g/ha,[3]; 12 g of ai/ha,0%
same,inhibition at 36 g/ha,[3]; 36 g of ai/ha,0%
same,inhibition at 12 g/ha,"Viola tricolor (VIOTR); 240 h, 10 DAT",0%
same,inhibition at 36 g/ha,"Viola tricolor (VIOTR); 240 h, 10 DAT, 36 g of ai/ha",0%
same,inhibition at 12 g/ha,"Viola tricolor (VIOTR); 504 h, 21 DAT",0%
same,inhibition at 12 g/ha,"[4]; 240 h, 10 DAT",0%
same,inhibition at 36 g/ha,"[4]; 240 h, 10 DAT",0%
same,inhibition at 12 g/ha,"[4]; 504 h, 21 DAT",0%
same,inhibition at 36 g/ha,"[4]; 504 h, 21 DAT",0%
same,inhibition at 12 g/ha,"[5]; 240 h, 10 DAT",0%
same,inhibition at 12 g/ha,"[5]; 504 h, 21 DAT",0%
same,inhibition at 36 g/ha,"[5]; 504 h, 21 DAT, 36 g of ai/ha",0%
same,inhibition at 12 g/ha,"[6]; 240 h, 10 DAT",0%
same,inhibition at 12 g/ha,"[6]; 504 h, 21 DAT",0%
same,inhibition at 36 g/ha,"[6]; 504 h, 21 DAT, 36 g of ai/ha",20%
same,inhibition at 12 g/ha,Oryza sativa (ORYSA); 12 g of ai/ha,0%
same,inhibition at 36 g/ha,Oryza sativa (ORYSA); 36 g of ai/ha,20%
same,inhibition at 12 g/ha,[7]; 12 g of ai/ha,0%
same,inhibition at 36 g/ha,[7]; 36 g of ai/ha,10%
same,inhibition at 12 g/ha,"Avena fatua (AVEFA); 504 h, 21 DAT, 12 g of ai/ha",0%
"CC1(C)CON(Cc2ccccc2Cl)C1=O [B-26, 2-[(2-chlorophenyl)methyl]-4,4-dimethyl-3-isoxazolidinone]",inhibition at 100 g/ha,"Zea mays (ZEAMX); 504 h, 21 DAT, 100 g of ai/ha",0%
same,inhibition at 300 g/ha,"Zea mays (ZEAMX); 504 h, 21 DAT, 300 g of ai/ha",30%
same,inhibition at 100 g/ha,"[2]; 10/21 DAT, 100 g of ai/ha",40%
same,inhibition at 300 g/ha,"Viola tricolor (VIOTR); 240 h, 10 DAT, 300 g of ai/ha",50%
same,inhibition at 100 g/ha,"[5]; 504 h, 21 DAT, 100 g of ai/ha",0%
same,inhibition at 300 g/ha,"[5]; 504 h, 21 DAT, 300 g of ai/ha",0%
same,inhibition at 100 g/ha,"[6]; 504 h, 21 DAT, 100 g of ai/ha",0%
same,inhibition at 300 g/ha,"[6]; 504 h, 21 DAT, 300 g of ai/ha",0%
same,inhibition at 100 g/ha,"Avena fatua (AVEFA); 240 h, 10 DAT",10%
same,inhibition at 100 g/ha,"Avena fatua (AVEFA); 504 h, 21 DAT",10%
same,inhibition at 300 g/ha,"Avena fatua (AVEFA); 504 h, 21 DAT, 300 g of ai/ha",30%
same,inhibition at 100 g/ha,[8],0%
